{
  "source": "paper doi:10.1101/2023.04.24.538046v2",
  "about": "(biorxiv, 2023)",
  "target": "TcMIP (Trypanosoma cruzi, UniProt Q09734)",
  "sequence (Q09734 30-196 limits assumed)": "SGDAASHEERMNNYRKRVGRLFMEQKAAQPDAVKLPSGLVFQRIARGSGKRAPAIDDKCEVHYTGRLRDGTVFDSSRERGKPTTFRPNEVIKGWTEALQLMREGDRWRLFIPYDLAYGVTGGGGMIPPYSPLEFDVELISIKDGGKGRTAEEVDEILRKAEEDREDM",
  "assay": "biochemical",
  "data": [
    {"compound": "O=C1[C@@H]2CCC[C@H]([C@@H](CO)CN1Cc1ccccn1)N2S(=O)(=O)c1cc(Cl)cc(Cl)c1", "note": "[JK095, (1S,5S,6R)-10-((3,5-dichlorophenyl)sulfonyl)-5-(hydroxymethyl)-3-(pyridin-2-ylmethyl)-3,10-diazabicyclo [4.3.1]decan-2-one]", "values": [
      {"measurement": "Kd", "result": "599 ± 25.5", "unit": "nM"}
    ]},
    {"compound": "C[C@@H](c1ccccn1)N1C[C@H](CO)[C@H]2CCC[C@@H](C1=O)N2S(=O)(=O)c1cc(Cl)cc(Cl)c1", "note": "[JK236]", "values": [
      {"measurement": "Kd", "result": "45.5 ± 9.2", "unit": "nM"}
    ]}
  ]
}
